Measured values from patent US20230131899A1, “INHIBITORS OF MICROBIALLY INDUCED AMYLOID” (Axial Therapeutics, Inc., priority 2020, published 2023).
Read-outs that look alike come from different tables or passages of the source.

What was measured:
E. coli CsgA = biological target: T1, E. coli CsgA (Escherichia coli, UniProt P28307); assay: In vitro ThioflavinT assay of CsgA aggregation (CsgA ThT Assay); type: biochemical; settings: for remaining activity at 25 µM: compound 25 μM; for remaining activity at 100 µM: compound 100 μM
T1 construct: made in house; host or cells: E. coli NEB 3016 slyD::kan, pET11d
T1 sequence (P28307 23-151): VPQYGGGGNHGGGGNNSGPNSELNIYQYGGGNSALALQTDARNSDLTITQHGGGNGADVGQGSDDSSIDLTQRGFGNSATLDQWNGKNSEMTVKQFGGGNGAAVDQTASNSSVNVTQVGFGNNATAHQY
Outline: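 Purified C-terminal His-tagged CsgA, monomerised by desalting and 30-kDa filtration, at 2-20 μM with 20-40 μM ThT in 50 mM potassium phosphate pH 7.3, 1% DMSO, compounds 3.125-200 uM; room temperature, fluorescence (ex 438/em 495 nm) read every 15 min. Background-subtracted signal expressed as percent inhibition versus vehicle at 6-6.5 or 8-9 h, or as percent control AUC.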

[1] = test system: CsgA gene expression (csgBAC promoter-GFP reporter) in E. coli UTI89; assay: In vitro live cell fluorescent reporter assay of CsgA transcription (Reporter Assay); type: cell-based; settings: Escherichia coli
Outline: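 Compounds at 0.14–100 μM (1% DMSO final) incubated 20 h at 27 °C in YESCA broth with UTI89 carrying a single-copy GFP reporter under the csgBAC intergenic promoter region, inoculum OD600 0.003. Fluorescence normalized to vehicle wells gave IC50 and 50%-of-vehicle concentration; OD600 reduction >10% flagged growth impact.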

[2] = read-out: CsgA ThT Assay (10 μM CsgA) % Control AUC at 1005 minutes, 25 μM (activity range), CsgA 10 μM, black plates, 1005 minutes, class symbol
[3] = read-out: CsgA ThT Assay (10 μM CsgA) % Control AUC at 1005 minutes, 25 μM, mean AUC as % of DMSO control, CsgA 10 μM, black plates, 1005 minutes
[4] = read-out: CsgA ThT Assay (10 μM CsgA) % Control AUC at 1005 minutes, 100 μM (activity range), CsgA 10 μM, black plates, 1005 minutes, class symbol
[5] = read-out: CsgA ThT Assay (10 μM CsgA) % Control AUC at 1005 minutes, 100 μM, mean AUC as % of DMSO control, CsgA 10 μM, black plates, 1005 minutes
[6] = read-out: Reporter Assay Abs IC50 (activity range), median Abs IC50 in the CsgA reporter assay, class symbol
[7] = read-out: Reporter Assay Abs IC50 (μM), median Abs IC50 in the CsgA reporter assay, N/A = maximum expression reduction is <50% of control
[8] = read-out: CsgA ThT Assay (2 μM CsgA) % Control Bmax 25 μM, activity range, class symbol, CsgA 2 μM, white plates
[9] = read-out: CsgA ThT Assay (2 μM CsgA) % Control Bmax 25 μM, mean Bmax as percentage of DMSO control, CsgA 2 μM, white plates
[10] = read-out: CsgA ThT Assay (2 μM CsgA) % Control Bmax 100 μM, activity range, class symbol, CsgA 2 μM, white plates
[11] = read-out: CsgA ThT Assay (2 μM CsgA) % Control Bmax 100 μM, mean Bmax as percentage of DMSO control, CsgA 2 μM, white plates
[12] = read-out: Reporter Assay Abs IC50, activity range, class symbol

`CCCN1CC(C(=O)O)n2c(c(-c3cccc(C(F)(F)F)c3)c(Cc3cccc4ccccc34)c(OCCc3ccccc3)c2=O)S1(=O)=O` (stereo not shown) [Compound 001, 8-(naphthalen-1-ylmethyl)-6-oxo-7-phenethoxy-2-propyl-9-(3-(trifluoromethyl)phenyl)-3,4-dihydro-2H,6H-pyrido[1,2-e][1,2,5]thiadiazine-4-carboxylic acid 1,1-dioxide] was tested, and the remaining activity at 25 µM (E. coli CsgA; [2]) was 31 to 60%, the remaining activity at 25 µM (E. coli CsgA; [3]) was 36% and the remaining activity at 100 µM (E. coli CsgA; [4]) was 31 to 60%. The remaining activity at 100 µM (E. coli CsgA; [5]) was 35%, the IC50 [1, 6] was 1.3 to 4.5 µM and the IC50 [1, 7] was 1.5 µM.
In the case of `O=C(O)C1CN(CC2CCCC2)S(=O)(=O)c2c(-c3cccc(C(F)(F)F)c3)c(Cc3cccc4ccccc34)c(NC3CCCC3)c(=O)n21` (stereo not shown) [Compound 002, 7-(cyclopentylamino)-2-(cyclopentylmethyl)-8-(naphthalen-1-ylmethyl)-6-oxo-9-(3-(trifluoromethyl)phenyl)-3,4-dihydro-2H,6H-pyrido[1,2-e][1,2,5]thiadiazine-4-carboxylic acid 1,1-dioxide], the remaining activity at 25 µM (E. coli CsgA; [8]) is reported as 31 to 60%, the remaining activity at 25 µM (E. coli CsgA; [9]) is reported as 60% and the remaining activity at 100 µM (E. coli CsgA; [10]) is reported as over 60%. The remaining activity at 100 µM (E. coli CsgA; [11]) was 137%, the IC50 [1, 7] was 4.1 µM and the IC50 [1, 12] was 1.3 to 4.5 µM.
For `CCCN1CC(C(=O)O)n2c(cc(Cc3cccc4ccccc34)c(NC3CCCC3)c2=O)S1(=O)=O` (stereo not shown) [Compound 006, 7-(cyclopentylamino)-8-(naphthalen-1-ylmethyl)-6-oxo-2-propyl-3,4-dihydro-2H,6H-pyrido[1,2-e][1,2,5]thiadiazine-4-carboxylic acid 1,1-dioxide], the remaining activity at 25 µM (E. coli CsgA; [8]) was over 60%, the remaining activity at 25 µM (E. coli CsgA; [9]) was 66% and the remaining activity at 100 µM (E. coli CsgA; [10]) was 31 to 60%. It also gave a remaining activity at 100 µM (E. coli CsgA; [11]) of 34%, an IC50 [1, 7] of 70 µM and an IC50 [1, 12] of over 10 µM.
`COC(=O)C1CSc2c(-c3cccc(C(F)(F)F)c3)c(Cc3cccc4ccccc34)cc(=O)n21` (stereo not shown) [Compound 012, Methyl 7-(naphthalen-1-ylmethyl)-5-oxo-8-(3-(trifluoromethyl)phenyl)-2,3-dihydro-5H-thiazolo[3,2-a]pyridine-3-carboxylate] gave a remaining activity at 25 µM (E. coli CsgA; [2]) of over 60%, a remaining activity at 25 µM (E. coli CsgA; [3]) of 108% and a remaining activity at 100 µM (E. coli CsgA; [4]) of over 60%. The remaining activity at 100 µM (E. coli CsgA; [5]) was 107%, the IC50 [1, 6] was 1.3 to 4.5 µM and the IC50 [1, 7] was 3.3 µM.
`Cn1c(=O)c2c(ncn2CCCCCCN2CC(C(=O)O)n3c(c(-c4cccc(C(F)(F)F)c4)c(Cc4cccc5ccccc45)cc3=O)S2(=O)=O)n(C)c1=O` (stereo not shown) [Compound 035, 2-(6-(1,3-dimethyl-2,6-dioxo-1,2,3,6-tetrahydro-7H-purin-7-yl)hexyl)-8-(naphthalen-1-ylmethyl)-6-oxo-9-(3-(trifluoromethyl)phenyl)-3,4-dihydro-2H,6H-pyrido[1,2-e][1,2,5]thiadiazine-4-carboxylic acid 1,1-dioxide] gave a remaining activity at 25 µM (E. coli CsgA; [2]) of over 60%, a remaining activity at 25 µM (E. coli CsgA; [3]) of 65% and an IC50 [1, 6] of 1.3 to 4.5 µM. It also gave an IC50 [1, 7] of 1.5 µM.
With `CNC(=O)CN1CC(C(=O)O)n2c(c(-c3cccc(C(F)(F)F)c3)c(Cc3cccc4ccccc34)cc2=O)S1(=O)=O` (stereo not shown) [Compound 049, 2-(2-(methylamino)-2-oxoethyl)-8-(naphthalen-1-ylmethyl)-6-oxo-9-(3-(trifluoromethyl)phenyl)-3,4-dihydro-2H,6H-pyrido[1,2-e][1,2,5]thiadiazine-4-carboxylic acid 1,1-dioxide] the remaining activity at 25 µM (E. coli CsgA; [2]) was over 60%, the remaining activity at 25 µM (E. coli CsgA; [3]) was 74% and the remaining activity at 100 µM (E. coli CsgA; [4]) was 31 to 60%. It also gave a remaining activity at 100 µM (E. coli CsgA; [5]) of 35%, an IC50 [1, 6] of 4.6 to 10 µM and an IC50 [1, 7] of 8.9 µM.
`CCCCCN1CC(C(=O)O)n2c(c(-c3cccc(C(F)(F)F)c3)c(Cc3ccc(N)c4ccccc34)cc2=O)S1(=O)=O` (stereo not shown) [Compound 052] was tested, and the remaining activity at 25 µM (E. coli CsgA; [2]) was 31 to 60%, the remaining activity at 25 µM (E. coli CsgA; [3]) was 42% and the remaining activity at 100 µM (E. coli CsgA; [4]) was 11 to 31%. For the same molecule, the remaining activity at 100 µM (E. coli CsgA; [5]) was 20%, the IC50 [1, 6] was under 1.3 µM and the IC50 [1, 7] was 1.1 µM.
`O=C(c1nc(=O)n2c(c1-c1cccc(C(F)(F)F)c1)SCC2C(=O)O)c1cccc2ccccc12` (stereo not shown) [Compound 055, 7-(1-naphthoyl)-5-oxo-8-(3-(trifluoromethyl)phenyl)-2,3-dihydro-5H-thiazolo[3,2-c]pyrimidine-3-carboxylic acid] showed a remaining activity at 25 µM (E. coli CsgA; [2]) of over 60%, a remaining activity at 25 µM (E. coli CsgA; [3]) of 73% and a remaining activity at 100 µM (E. coli CsgA; [4]) of 11 to 31%. For the same molecule, the remaining activity at 100 µM (E. coli CsgA; [5]) was 17%, the IC50 [1, 6] was over 10 µM and the IC50 [1, 7] was 11 µM.
With `CN1CC(C(=O)O)n2c(c(-c3cccc(C(F)(F)F)c3)c(Cc3cccc4ccccc34)c(Br)c2=O)S1(=O)=O` (stereo not shown) [Compound 058, 7-bromo-2-methyl-8-(naphthalen-1-ylmethyl)-6-oxo-9-(3-(trifluoromethyl)phenyl)-3,4-dihydro-2H,6H-pyrido[1,2-e][1,2,5]thiadiazine-4-carboxylic acid 1,1-dioxide] the remaining activity at 25 µM (E. coli CsgA; [2]) was 31 to 60%, the remaining activity at 25 µM (E. coli CsgA; [3]) was 47% and the remaining activity at 100 µM (E. coli CsgA; [4]) was 11 to 31%. It also gave a remaining activity at 100 µM (E. coli CsgA; [5]) of 22%, an IC50 [1, 6] of over 10 µM and an IC50 [1, 7] of 19.8 µM.
In the case of `O=C(O)c1c(Cc2ccccc2)sc2c(-c3cccc(C(F)(F)F)c3)c(Cc3cccc4ccccc34)cc(=O)n12` [Compound 060, 2-benzyl-7-(naphthalen-1-ylmethyl)-5-oxo-8-(3-(trifluoromethyl)phenyl)-5H-thiazolo[3,2-a]pyridine-3-carboxylic acid], the remaining activity at 25 µM (E. coli CsgA; [2]) is reported as over 60%, the remaining activity at 25 µM (E. coli CsgA; [3]) is reported as 91% and the remaining activity at 100 µM (E. coli CsgA; [4]) is reported as over 60%. The remaining activity at 100 µM (E. coli CsgA; [5]) was 98%, the IC50 [1, 6] was 1.3 to 4.5 µM and the IC50 [1, 7] was 1.4 µM.
Molecule `CCCc1sc2c(-c3cccc(C(F)(F)F)c3)c(Cc3cccc4ccccc34)cc(=O)n2c1C(=O)O` [Compound 061, 7-(naphthalen-1-ylmethyl)-5-oxo-2-propyl-8-(3-(trifluoromethyl)phenyl)-5H-thiazolo[3,2-a]pyridine-3-carboxylic acid] has a remaining activity at 25 µM (E. coli CsgA; [2]) of 31 to 60%, a remaining activity at 25 µM (E. coli CsgA; [3]) of 44% and a remaining activity at 100 µM (E. coli CsgA; [4]) of 31 to 60%. It also gave a remaining activity at 100 µM (E. coli CsgA; [5]) of 45%, an IC50 [1, 6] of 1.3 to 4.5 µM and an IC50 [1, 7] of 2.1 µM.
`O=C(O)C1CSc2c(-c3cccc(C(F)(F)F)c3)c(C(F)(F)c3cccc4ccccc34)nc(=O)n21` (stereo not shown) [Compound 063, 7-(difluoro(naphthalen-1-yl)methyl)-5-oxo-8-(3-(trifluoromethyl)phenyl)-2,3-dihydro-5H-thiazolo[3,2-c]pyrimidine-3-carboxylic acid] gave a remaining activity at 25 µM (E. coli CsgA; [2]) of over 60%, a remaining activity at 25 µM (E. coli CsgA; [3]) of 61% and a remaining activity at 100 µM (E. coli CsgA; [4]) of 11 to 31%. For the same molecule, the remaining activity at 100 µM (E. coli CsgA; [5]) was 21%, the IC50 [1, 6] was over 10 µM and the IC50 [1, 7] was 11.2 µM.
For `Nc1c(Cc2cccc3ccccc23)c(-c2cccc(C(F)(F)F)c2)c2n(c1=O)C(C(=O)O)CO2` (stereo not shown) [Compound 069, 6-amino-7-(naphthalen-1-ylmethyl)-5-oxo-8-(3-(trifluoromethyl)phenyl)-2,3-dihydro-5H-oxazolo[3,2-a]pyridine-3-carboxylic acid], the remaining activity at 25 µM (E. coli CsgA; [2]) was 31 to 60%, the remaining activity at 25 µM (E. coli CsgA; [3]) was 58% and the remaining activity at 100 µM (E. coli CsgA; [4]) was 11 to 31%. It also gave a remaining activity at 100 µM (E. coli CsgA; [5]) of 14%, an IC50 [1, 6] of 4.6 to 10 µM and an IC50 [1, 7] of 5.7 µM.
For `CN1CC(C(=O)O)n2c(c(-c3cccc(C(F)(F)F)c3)c(Cc3cccc4ccccc34)c(NC3CCOCC3)c2=O)S1(=O)=O` (stereo not shown) [Compound 072, 2-methyl-8-(naphthalen-1-ylmethyl)-6-oxo-7-((tetrahydro-2H-pyran-4-yl)amino)-9-(3-(trifluoromethyl)phenyl)-3,4-dihydro-2H,6H-pyrido[1,2-e][1,2,5]thiadiazine-4-carboxylic acid 1,1-dioxide], the remaining activity at 25 µM (E. coli CsgA; [2]) was 11 to 31%, the remaining activity at 25 µM (E. coli CsgA; [3]) was 24% and the remaining activity at 100 µM (E. coli CsgA; [4]) was under 10%. It also gave a remaining activity at 100 µM (E. coli CsgA; [5]) of 10%, an IC50 [1, 6] of 4.6 to 10 µM and an IC50 [1, 7] of 6.9 µM.
`CN1CC(C(=O)O)n2c(c(-c3cccc(C(F)(F)F)c3)c(Cc3cccc4ccccc34)c(CO)c2=O)S1(=O)=O` (stereo not shown) [Compound 077, 7-(hydroxymethyl)-2-methyl-8-(naphthalen-1-ylmethyl)-6-oxo-9-(3-(trifluoromethyl)phenyl)-3,4-dihydro-2H,6H-pyrido[1,2-e][1,2,5]thiadiazine-4-carboxylic acid 1,1-dioxide] showed a remaining activity at 25 µM (E. coli CsgA; [2]) of over 60%, a remaining activity at 25 µM (E. coli CsgA; [3]) of 97% and a remaining activity at 100 µM (E. coli CsgA; [4]) of over 60%. The remaining activity at 100 µM (E. coli CsgA; [5]) was 87%, the IC50 [1, 6] was over 10 µM and the IC50 [1, 7] was 51.6 µM.
